#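 Each compound was tested at five concentrations against cells in 96-well plates for 48 hours. The concentration for 50% growth inhibition is given as GI50.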 Active and inactive are the calls of the source. Cut-off read from the data, not from the text of the source: active = GI50 up to about 1.1 µM and inactive = higher.
# Tests used:
# Test in all cases: NCI tumour cell line growth inhibition, 48 h
# [1] = tested on: KM12
# [2] = tested on: TK-10
# [3] = tested on: A549
# [4] = tested on: DU-145
# [5] = tested on: SR
# [6] = tested on: NCI-H226
# [7] = tested on: SNB-75
# [8] = tested on: Hs-578T
# [9] = tested on: SK-OV-3
# [10] = tested on: HL-60
# [11] = tested on: BT-549
# [12] = tested on: SN12C
# [13] = tested on: SK-MEL-2
# [14] = tested on: CCRF-CEM
# [15] = tested on: UACC-257
# [16] = tested on: EKVX
# [17] = tested on: MCF7
# [18] = tested on: SF-539
# [19] = tested on: MDA-MB-231
# [20] = tested on: NCI-H460
# [21] = tested on: OVCAR-3
# [22] = tested on: 786-0
# [23] = tested on: SNB-19
# [24] = tested on: COLO 205
# [25] = tested on: LOX IMVI
# [26] = tested on: NCI/ADR-RES
# [27] = tested on: CAKI-1
# [28] = tested on: NCI-H23
# [29] = tested on: SK-MEL-5
# [30] = tested on: SF-295
# [31] = tested on: UO-31
# [32] = tested on: IGROV-1
# [33] = tested on: OVCAR-8
# [34] = tested on: SW-620
# [35] = tested on: M14
# [36] = tested on: PC-3
# [37] = tested on: HCT-116
# [38] = tested on: HCT-15
# [39] = tested on: MOLT-4
# [40] = tested on: OVCAR-4
# [41] = tested on: RXF 393
# [42] = tested on: NCI-H522
# [43] = tested on: Malme-3M
# [44] = tested on: SK-MEL-28
# [45] = tested on: HCC 2998
# [46] = tested on: UACC-62
# [47] = tested on: SF-268
# [48] = tested on: HT-29
# [49] = tested on: HOP-62
# [50] = tested on: U-251
# [51] = tested on: K562
# [52] = tested on: ACHN
# [53] = tested on: OVCAR-5
# [54] = tested on: MDA-MB-435
# [55] = tested on: T47D
# [56] = tested on: HOP-92
# [57] = tested on: RPMI-8226
# [58] = tested on: MDA-N
# [59] = tested on: A498
smiles,measurement,setting,value
O=Cc1ccc(OC[C@H]2COC(=O)N2)cc1,GI50,[1],37.8 µM (inactive)
same,GI50,[2],> 100 µM (inactive)
same,GI50,[3],47.9 µM (inactive)
same,GI50,[4],> 100 µM (inactive)
same,GI50,[5],> 100 µM (inactive)
same,GI50,[6],> 100 µM (inactive)
same,GI50,[7],> 100 µM (inactive)
same,GI50,[8],> 100 µM (inactive)
same,GI50,[9],> 100 µM (inactive)
same,GI50,[10],> 100 µM (inactive)
same,GI50,[11],> 100 µM (inactive)
same,GI50,[12],> 100 µM (inactive)
same,GI50,[13],> 100 µM (inactive)
same,GI50,[14],> 100 µM (inactive)
same,GI50,[15],> 100 µM (inactive)
same,GI50,[16],> 100 µM (inactive)
same,GI50,[17],> 100 µM (inactive)
same,GI50,[18],> 100 µM (inactive)
same,GI50,[19],> 100 µM (inactive)
same,GI50,[20],> 100 µM (inactive)
same,GI50,[21],> 100 µM (inactive)
same,GI50,[22],> 100 µM (inactive)
same,GI50,[23],> 100 µM (inactive)
same,GI50,[24],72.4 µM (inactive)
same,GI50,[25],> 100 µM (inactive)
same,GI50,[26],> 100 µM (inactive)
same,GI50,[27],> 100 µM (inactive)
same,GI50,[28],> 100 µM (inactive)
same,GI50,[29],> 100 µM (inactive)
same,GI50,[30],> 100 µM (inactive)
same,GI50,[31],> 100 µM (inactive)
same,GI50,[32],> 100 µM (inactive)
same,GI50,[33],> 100 µM (inactive)
same,GI50,[34],> 100 µM (inactive)
same,GI50,[35],> 100 µM (inactive)
same,GI50,[36],> 100 µM (inactive)
same,GI50,[37],> 100 µM (inactive)
same,GI50,[38],> 100 µM
same,GI50,[39],> 100 µM (inactive)
same,GI50,[40],> 100 µM (inactive)
same,GI50,[41],> 100 µM (inactive)
same,GI50,[42],52.4 µM (inactive)
same,GI50,[43],> 100 µM (inactive)
same,GI50,[44],> 100 µM (inactive)
same,GI50,[45],56.5 µM (inactive)
same,GI50,[46],> 100 µM (inactive)
same,GI50,[47],> 100 µM (inactive)
same,GI50,[48],> 100 µM (inactive)
same,GI50,[49],> 100 µM (inactive)
same,GI50,[50],> 100 µM (inactive)
same,GI50,[51],> 100 µM (inactive)
same,GI50,[52],> 100 µM (inactive)
same,GI50,[53],> 100 µM (inactive)
same,GI50,[54],> 100 µM (inactive)
same,GI50,[55],> 100 µM (inactive)
COC(=O)/C=C\S/C(=C(/c1ccccc1)n1ccc(C(=O)OC)n1)c1ccccc1,GI50,[1],> 100 µM (inactive)
same,GI50,[2],25.6 µM (inactive)
same,GI50,[3],36.6 µM (inactive)
same,GI50,[5],> 100 µM (inactive)
same,GI50,[6],> 100 µM (inactive)
same,GI50,[7],6.04 µM (inactive)
same,GI50,[8],26.6 µM (inactive)
same,GI50,[9],19.9 µM (inactive)
same,GI50,[10],> 100 µM (inactive)
same,GI50,[11],> 100 µM (inactive)
same,GI50,[12],37.5 µM (inactive)
same,GI50,[13],15.7 µM (inactive)
same,GI50,[15],45.3 µM (inactive)
same,GI50,[16],26.5 µM (inactive)
same,GI50,[17],8.77 µM (inactive)
same,GI50,[18],40.2 µM (inactive)
same,GI50,[19],9.82 µM (inactive)
same,GI50,[20],66.4 µM (inactive)
same,GI50,[22],12.4 µM (inactive)
same,GI50,[23],12.7 µM (inactive)
same,GI50,[24],> 100 µM (inactive)
same,GI50,[25],> 100 µM (inactive)
same,GI50,[26],47.6 µM (inactive)
same,GI50,[27],> 100 µM (inactive)
same,GI50,[28],22.8 µM (inactive)
same,GI50,[29],29.5 µM (inactive)
same,GI50,[30],20.3 µM (inactive)
same,GI50,[31],13.7 µM (inactive)
same,GI50,[32],58.6 µM (inactive)
same,GI50,[33],35.9 µM (inactive)
same,GI50,[34],82.8 µM (inactive)
same,GI50,[35],43.1 µM (inactive)
same,GI50,[36],16.7 µM (inactive)
same,GI50,[37],20.5 µM (inactive)
same,GI50,[38],> 100 µM
same,GI50,[39],56.6 µM (inactive)
same,GI50,[40],21.9 µM (inactive)
same,GI50,[41],13.1 µM (inactive)
same,GI50,[42],24.5 µM (inactive)
same,GI50,[43],23.7 µM (inactive)
same,GI50,[44],28.6 µM (inactive)
same,GI50,[45],41 µM (inactive)
same,GI50,[46],3.23 µM (inactive)
same,GI50,[47],20.5 µM (inactive)
same,GI50,[48],> 100 µM (inactive)
same,GI50,[56],20.9 µM (inactive)
same,GI50,[49],15.8 µM (inactive)
same,GI50,[50],13 µM (inactive)
same,GI50,[51],> 100 µM (inactive)
same,GI50,[52],7.48 µM (inactive)
same,GI50,[53],> 100 µM (inactive)
same,GI50,[57],38.9 µM (inactive)
same,GI50,[54],45.4 µM (inactive)
same,GI50,[55],24.5 µM (inactive)
COc1cc(S(=O)(=O)Nc2ccc(-c3csc(N4C(=O)CSC4c4cccs4)n3)cc2)ccc1Cl (stereo not drawn),GI50,[1],20.4 µM (inactive)
same,GI50,[3],86.9 µM (inactive)
same,GI50,[4],22.1 µM (inactive)
same,GI50,[5],29.7 µM (inactive)
same,GI50,[6],27.9 µM (inactive)
same,GI50,[58],29.4 µM (inactive)
same,GI50,[7],20.2 µM (inactive)
same,GI50,[8],30.3 µM (inactive)
same,GI50,[9],56.4 µM (inactive)
same,GI50,[10],14.5 µM (inactive)
same,GI50,[11],23.6 µM (inactive)
same,GI50,[12],25.8 µM (inactive)
same,GI50,[13],20.5 µM (inactive)
same,GI50,[14],4.98 µM (inactive)
same,GI50,[15],20.3 µM (inactive)
same,GI50,[16],50.8 µM (inactive)
same,GI50,[17],16.4 µM (inactive)
same,GI50,[18],25.7 µM (inactive)
same,GI50,[20],29.3 µM (inactive)
same,GI50,[21],51.5 µM (inactive)
same,GI50,[22],28.4 µM (inactive)
same,GI50,[23],33.3 µM (inactive)
same,GI50,[24],31.8 µM (inactive)
same,GI50,[25],18.7 µM (inactive)
same,GI50,[26],> 100 µM (inactive)
same,GI50,[27],79.8 µM (inactive)
same,GI50,[28],31.3 µM (inactive)
same,GI50,[29],64 µM (inactive)
same,GI50,[30],> 100 µM (inactive)
same,GI50,[31],57.3 µM (inactive)
same,GI50,[32],27.1 µM (inactive)
same,GI50,[33],41.5 µM (inactive)
same,GI50,[34],24.7 µM (inactive)
same,GI50,[35],46.9 µM (inactive)
same,GI50,[36],24.9 µM (inactive)
same,GI50,[37],31.3 µM (inactive)
same,GI50,[38],32.6 µM
same,GI50,[39],8.67 µM (inactive)
same,GI50,[40],18.4 µM (inactive)
same,GI50,[41],11.2 µM (inactive)
same,GI50,[42],15.9 µM (inactive)
same,GI50,[43],27.9 µM (inactive)
same,GI50,[44],19.9 µM (inactive)
same,GI50,[45],15.6 µM (inactive)
same,GI50,[47],19.8 µM (inactive)
same,GI50,[48],39.8 µM (inactive)
same,GI50,[56],23.7 µM (inactive)
same,GI50,[49],42.7 µM (inactive)
same,GI50,[59],43.6 µM (inactive)
same,GI50,[51],22.6 µM (inactive)
same,GI50,[52],> 100 µM (inactive)
same,GI50,[53],> 100 µM (inactive)
same,GI50,[57],8.67 µM (inactive)
same,GI50,[54],29.5 µM (inactive)
